Key:
[1] = test system: Enterococcus faecalis ATCC 7080; test: Biofilm formation in 96 well plate, crystal violet assay; format: cell-based; conditions: for reduction of biofilm formation versus control: 24 hours, 37° C., FIG. 1 B
Description: (§1) FIG. 1: The effect of varying concentrations of DHA on the ability of Klebsiella pneumoniae NCIMB 418 (A) and Enterococcus faecalis ATCC 7080 (B) to form a biofilm in vitro. (10^6 CFU/well was incubated with various concentrations of DHA in a 96 well plate for 24 hours statically at 37° C. Biofilm formation was assessed using the crystal violet assay. Data represents the mean±SD for six independent experiments, carried out in triplicate. One-way ANOVA was performed for statistical analysis. *****P<0.001 compared to both the control (no DHA) and vehicle control (1% DMSO).
(§2) The effect of varying concentrations of DHA on the ability of Klebsiella pneumoniae NCIMB 418 and Enterococcus faecalis ATCC 7080 to form a biofilm in vitro was investigated. 10^6 CFU/well was incubated with various concentrations of DHA in a 96 well plate for 24 hours statically at 37° C. Biofilm formation was assessed using the crystal violet assay. Data represents the mean±SD for six independent experiments, carried out in triplicate. The assay involved seeding cells at 10^6 CFU/ml in media with DHA. Cells were then left for 24 hrs to form biofilms before washing and staining with Crystal Violet. Crystal violet adhered to cells stuck to the sides of the tube/well. The samples were washed again to remove any unbound dye before dissolving the stain in acetic acid and the reading was measured in a spectrophotometer. The colour intensity relates to the level of biofilm present. The more colour the more bacteria in the biofilm (Merrit, J. H, et al., (2005) “Growing and Analysing Static Biofilms”, Current Protocols in Microbiology, Chapter 1(July), p. Unit 1B.1.).

[2] = test system: Klebsiella pneumoniae NCIMB 418; test: as above; format: cell-based; conditions: for reduction of biofilm formation versus control: 24 hours, 37° C., FIG. 1 A
Description: as §1, §2

[3] = test system: human gingival fibroblasts (HGFs); design: dose or concentration left out as unconfirmed; conditions: exposed for 24 and 48 hours; cited from earlier work
[4] = test system: human periodontal ligament cells (hPDLCs); design: dose or concentration left out as unconfirmed; conditions: exposed for 24 and 48 hours; cited from earlier work
[5] = summary statement on FIG. 1, concentration not stated

## CC/C=C\C/C=C\C/C=C\C/C=C\C/C=C\C/C=C\CCC(=O)O [DHA, docosahexaenoic acid]
[1]; DHA 6.25 μM
  reduction of biofilm formation versus control: ~20%
[1]; DHA 100 μM
  reduction of biofilm formation versus control: ~65%
[1]; [5]
  reducing biofilm formation: approximately 60%
[2]; DHA 6.25 μM
  reduction of biofilm formation versus control: ~40%
[2]; DHA 100 μM
  reduction of biofilm formation versus control: ~65%
[2]; [5]
  reducing biofilm formation: approximately 60%
[3]
  cytotoxic effects: exhibited cytotoxic effects
[4]
  cytotoxic effects: exhibited cytotoxic effects

Source: patent US20230413814A1, “A METHOD FOR REMOVING A BIOFILM” (TECHNOLOGICAL UNIVERSITY DUBLIN, priority 2020, published 2023)
